From ChEMBL document CHEMBL3272192, “Thyroxine analogues. 23. Quantitative structure-activity correlation studies of in vivo and in vitro thyromimetic activities” (1977)

Tests used:
Rattus norvegicus [1] = experiment: In vivo antigoiter activity in rat; type: functional
Rattus norvegicus [2] = organism: Rattus norvegicus; experiment: Displacement of radiolabelled L-T3 from thyroid hormone receptor in intact rat hepatic nuclei relative to T3
[3] = target: T1, Thyroxine-binding globulin (Homo sapiens) (UniProt P05543); experiment: Binding affinity to thyroxine binding globulin (unknown origin) relative to T4
T1 sequence (whole entry): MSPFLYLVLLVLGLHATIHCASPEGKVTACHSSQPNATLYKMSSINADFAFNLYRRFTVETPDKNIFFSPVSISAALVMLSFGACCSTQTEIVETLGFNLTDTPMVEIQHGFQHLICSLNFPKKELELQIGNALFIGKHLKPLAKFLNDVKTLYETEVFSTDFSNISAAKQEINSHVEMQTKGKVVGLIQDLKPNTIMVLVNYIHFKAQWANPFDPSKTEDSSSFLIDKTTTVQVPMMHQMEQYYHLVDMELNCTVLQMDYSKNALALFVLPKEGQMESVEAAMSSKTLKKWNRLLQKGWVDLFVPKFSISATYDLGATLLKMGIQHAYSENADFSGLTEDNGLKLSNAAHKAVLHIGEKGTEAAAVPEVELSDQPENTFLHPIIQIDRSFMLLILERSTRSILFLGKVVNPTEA

Row | Structure (SMILES) | Activity (Rattus norvegicus [1]) [%] | log(%) (Rattus norvegicus [1]) | RBA (Rattus norvegicus [2]) [%] | log(%) (Rattus norvegicus [2]) | RBA [3] [%] | log(%) [3]
1 | NC(Cc1cc(I)c(Oc2cc(I)c(O)c(I)c2)c(I)c1)C(=O)O (centres undefined) [THYROXINE] | 18.1 | 1.258 | 12.5 | 1.1 | 100 | 2
2 | NC(Cc1cc(Cl)c(Oc2cc(Cl)c(O)c(I)c2)c(I)c1)C(=O)O (centres undefined) | 2.27 | 0.356 | – | – | – | –
3 | CCCc1cc(Oc2c(I)cc(CC(N)C(=O)O)cc2I)ccc1O (centres undefined) | 39.5 | 1.597 | – | – | – | –
4 | Cc1c(O)ccc(Oc2c(I)cc(CC(N)C(=O)O)cc2I)c1C (centres undefined) | 9.04 | 0.956 | 1.1 | 0.041 | – | –
5 | NC(Cc1cc(I)c(Oc2ccc(O)c(-c3ccccc3)c2)c(I)c1)C(=O)O (centres undefined) | 2.03 | 0.308 | 2 | 0.301 | 0.04 | -1.4
6 | Cc1cc(CC(N)C(=O)O)cc(C)c1Oc1ccc(O)c(I)c1 (centres undefined) | 0.9 | -0.046 | – | – | – | –
7 | NC(Cc1cc(Br)c(Oc2cc(Br)c(O)c(Br)c2)c(Br)c1)C(=O)O (centres undefined) | 0.065 | -1.187 | – | – | – | –
8 | Cc1cc(Oc2c(I)cc(CC(N)C(=O)O)cc2I)cc(C)c1N (centres undefined) | 0.31 | -0.886 | – | – | – | –
9 | NC(Cc1cc(I)c(Oc2cccc(Br)c2)c(I)c1)C(=O)O (centres undefined) | 18 | 1.225 | – | – | – | –
10 | NC(Cc1cc(I)c(Oc2cccc(F)c2)c(I)c1)C(=O)O (centres undefined) | 1.39 | 0.143 | – | – | – | –
11 | Cc1cc(CC(N)C(=O)O)cc(C)c1Oc1ccc(O)c(C(C)C)c1 (centres undefined) | 3.6 | 0.556 | 0.7 | -0.155 | – | –
12 | NC(Cc1cc(I)c(Oc2ccccc2)c(I)c1)C(=O)O (centres undefined) | 1.24 | 0.093 | – | – | – | –
13 | CC(C)c1cc(CC(N)C(=O)O)cc(C(C)C)c1Oc1ccc(O)c(I)c1 (centres undefined) | – | – | 0.2 | – | – | –
14 | NC(Cc1ccc(Oc2ccc(O)c(I)c2)c(I)c1)C(=O)O (centres undefined) [DIIODOTHYRONINE] | 0.056 | -1.252 | 0.5 | -0.301 | – | –
15 | Cc1cc(CC(N)C(=O)O)cc(I)c1Oc1ccc(O)cc1 (centres undefined) | 0.093 | -1.032 | – | – | – | –
16 | CCC(C)c1cc(Oc2c(C)cc(CC(N)C(=O)O)cc2C)ccc1O (centres undefined) | 2.91 | 0.464 | – | – | – | –
17 | NC(Cc1cc(Br)c(Oc2ccc(O)c(Br)c2)c(Br)c1)C(=O)O (centres undefined) | 4.63 | 0.666 | – | – | – | –
18 | NC(Cc1cc(I)c(Oc2ccc(O)c(Cl)c2)c(I)c1)C(=O)O (centres undefined) | 4.88 | 0.688 | 6.2 | 0.792 | – | –
19 | CC(C)c1cc(Oc2c(I)cc(CC(N)C(=O)O)cc2I)cc(C(C)C)c1O (centres undefined) | – | – | 1.4 | 0.146 | – | –
20 | NC(Cc1ccc(Oc2cc(I)c(O)c(I)c2)c(I)c1)C(=O)O (centres undefined) [REVERSETRIIODOTHYRONINE] | 0.125 | -0.903 | 0.1 | -1 | – | –
21 | NC(Cc1cc(I)c(Sc2ccc(O)c(I)c2)c(I)c1)C(=O)O (centres undefined) | 13.82 | 1.14 | 100 | 2 | – | –
22 | CCCc1cc(Oc2c(C)cc(CC(N)C(=O)O)cc2C)ccc1O (centres undefined) | 2.36 | 0.373 | – | – | – | –

Row | Structure (SMILES) | Activity (Rattus norvegicus [1]) [%] | log(%) (Rattus norvegicus [1]) | RBA (Rattus norvegicus [2]) [%] | log(%) (Rattus norvegicus [2]) | RBA [3] [%] | log(%) [3]
23 | Cc1cc(Oc2c(I)cc(CC(N)C(=O)O)cc2I)cc(C)c1O (centres undefined) | 9.04 | 0.956 | 6.2 | 0.792 | 0.29 | -0.538
24 | Cc1cc(O)c(I)cc1Oc1c(I)cc(CC(N)C(=O)O)cc1I (centres undefined) | 0.36 | -0.444 | 0.3 | -0.523 | – | –
25 | N[C@@H](Cc1cc(I)c(Oc2ccc(O)c(I)c2)c(I)c1)C(=O)O [LIOTHYRONINE] | 100 | 2 | – | – | 9 | 0.954
26 | NC(Cc1cc(I)c(Oc2ccc(O)c(O)c2)c(I)c1)C(=O)O (centres undefined) | 0.27 | -0.569 | – | – | 0.06 | -1.22
27 | NC(Cc1cc(I)c(Oc2ccc(O)c(Br)c2)c(I)c1)C(=O)O (centres undefined) | 23.78 | 1.376 | – | – | – | –
28 | Cc1cccc(Oc2c(I)cc(CC(N)C(=O)O)cc2I)c1 (centres undefined) | 2.71 | 0.433 | 0.2 | -0.699 | – | –
29 | NC(Cc1cc(Br)c(Oc2cc(I)c(O)c(I)c2)c(Br)c1)C(=O)O (centres undefined) | 1.97 | 0.294 | – | – | – | –
30 | NC(Cc1cc(I)c(Cc2cc(I)c(O)c(I)c2)c(I)c1)C(=O)O (centres undefined) | – | – | 2.6 | 0.415 | – | –
31 | NC(Cc1cc(I)c(Sc2ccc(O)cc2)c(I)c1)C(=O)O (centres undefined) | – | – | 1.3 | 0.114 | – | –
32 | NC(Cc1cc(Cl)c(Oc2ccc(O)c(Cl)c2)c(Cl)c1)C(=O)O (centres undefined) | 0.091 | -1.041 | – | – | – | –
33 | CC(C)c1cc(Oc2c(I)cc(CC(N)C(=O)O)cc2I)cc(I)c1O (centres undefined) | 55.36 | 1.743 | – | – | – | –
34 | NC(Cc1cc(I)c(Oc2cccc(C(F)(F)F)c2)c(I)c1)C(=O)O (centres undefined) | 13.56 | 1.132 | 0.2 | -0.699 | – | –
35 | COc1ccc(Oc2c(I)cc(CC(N)C(=O)O)cc2I)cc1C(C)(C)C (centres undefined) | 2.35 | 0.371 | – | – | – | –
36 | COc1ccc(Oc2c(I)cc(CC(N)C(=O)O)cc2I)cc1I (centres undefined) | 11.25 | 1.051 | – | – | – | –
37 | Nc1ccc(Oc2c(I)cc(CC(N)C(=O)O)cc2I)cc1 (centres undefined) | 0.27 | -0.569 | 0.76 | -0.119 | – | –
38 | NC(Cc1cc(I)c(Oc2cccc(Cl)c2)c(I)c1)C(=O)O (centres undefined) | 7.78 | 0.891 | – | – | – | –
39 | COc1ccc(Oc2c(I)cc(CC(N)C(=O)O)cc2I)cc1C(C)C (centres undefined) | 19 | 1.279 | – | – | – | –
40 | Cc1cc(Oc2c(I)cc(CC(N)C(=O)O)cc2I)ccc1O (centres undefined) | 14.47 | 1.16 | 13.5 | 1.13 | 0.28 | -0.553
41 | NC(Cc1cc(Br)c(Oc2ccc(O)c(I)c2)c(Br)c1)C(=O)O (centres undefined) | 16.87 | 1.227 | – | – | – | –
42 | NC(Cc1cc(I)c(Oc2ccc(O)c3ccccc23)c(I)c1)C(=O)O (centres undefined) | – | – | 8 | 0.903 | – | –
43 | Cc1cc(C)cc(Oc2c(I)cc(CC(N)C(=O)O)cc2I)c1 (centres undefined) | 0.054 | -0.839 | – | – | – | –
44 | CCc1cc(Oc2c(I)cc(CC(N)C(=O)O)cc2I)ccc1O (centres undefined) | 40.8 | 1.611 | 21 | 1.32 | 1.59 | 0.201

Row | Structure (SMILES) | Activity (Rattus norvegicus [1]) [%] | log(%) (Rattus norvegicus [1]) | RBA (Rattus norvegicus [2]) [%] | log(%) (Rattus norvegicus [2]) | RBA [3] [%] | log(%) [3]
45 | CC(C)c1cc(Oc2c(Br)cc(CC(N)C(=O)O)cc2Br)ccc1O (centres undefined) | 30 | 1.477 | 36 | 1.56 | – | –
46 | NC(Cc1cc(I)c(Oc2cc(Br)c(O)c(Br)c2)c(I)c1)C(=O)O (centres undefined) | 1.58 | 0.199 | – | – | – | –
47 | Cc1cc(CC(N)C(=O)O)cc(I)c1Oc1ccc(O)c(I)c1 (centres undefined) | 6.24 | 0.795 | – | – | – | –
48 | Cc1cc(CC(N)C(=O)O)ccc1Oc1ccc(O)c(I)c1 (centres undefined) | 0.12 | -0.921 | – | – | – | –
49 | NC(Cc1cc(I)c(Oc2cc(Cl)c(O)c(Cl)c2)c(I)c1)C(=O)O (centres undefined) | 3.8 | 0.58 | 4.5 | 0.653 | – | –
50 | NC(Cc1cc(I)c(Cc2ccc(O)c(I)c2)c(I)c1)C(=O)O (centres undefined) | 54.25 | 1.734 | 250 | 2.4 | – | –
51 | NC(Cc1cc(I)c(Oc2cc(F)c(O)c(F)c2)c(I)c1)C(=O)O (centres undefined) | 0.43 | -0.366 | – | – | – | –
52 | Cc1cc(Oc2c(C)cc(CC(N)C(=O)O)cc2C)ccc1O (centres undefined) | 0.54 | -0.268 | 0.1 | -1 | – | –
53 | Cc1cc(Oc2c(I)cc(CC(N)C(=O)O)cc2I)ccc1N (centres undefined) | 0.036 | -1.444 | – | – | – | –
54 | NC(Cc1cc(I)c(Oc2ccc(O)c(C3CCCCC3)c2)c(I)c1)C(=O)O (centres undefined) | – | – | 1.4 | 0.146 | – | –
55 | NC(Cc1cc(I)c(Oc2ccc(O)c([N+](=O)[O-])c2)c(I)c1)C(=O)O (centres undefined) | 0.18 | -0.745 | – | – | – | –
56 | NC(Cc1cc(I)c(Oc2cccc(I)c2)c(I)c1)C(=O)O (centres undefined) | 27.12 | 1.433 | 0.4 | -0.398 | – | –
57 | NC(Cc1cc(I)c(Oc2cc(F)c(O)c(I)c2)c(I)c1)C(=O)O (centres undefined) | 6.03 | 0.78 | – | – | – | –
58 | Cc1cc(Oc2c(C)cc(CC(N)C(=O)O)cc2C)cc(C)c1O (centres undefined) | 0.36 | -0.444 | 0.1 | -1 | – | –
59 | NC(Cc1cc(I)c(Oc2ccc(O)c3c2CCCC3)c(I)c1)C(=O)O (centres undefined) | 18.08 | 1.257 | 8 | 0.903 | – | –
60 | NC(Cc1cc(I)c(Oc2ccc(O)c(F)c2)c(I)c1)C(=O)O (centres undefined) | 0.65 | -0.785 | – | – | – | –
61 | CCC(C)c1cc(Oc2c(I)cc(CC(N)C(=O)O)cc2I)ccc1O (centres undefined) | 79.9 | 1.902 | – | – | – | –
62 | NC(Cc1cc(Br)c(Oc2cc(Br)c(O)c(I)c2)c(I)c1)C(=O)O (centres undefined) | 2.83 | 0.452 | – | – | – | –
63 | NC(Cc1cc(Br)c(Oc2ccc(O)c(I)c2)c(I)c1)C(=O)O (centres undefined) | 71.98 | 1.857 | 1.4 | 0.146 | – | –
64 | Cc1cc(Oc2c(I)cc(CC(N)C(=O)O)cc2I)c(C)cc1O (centres undefined) | 0.18 | -0.745 | 0.1 | -1 | – | –
